Assay results taken from patent US8501793B2, “Blood flow promoters for cauda equina tissues” (Ono Pharmaceutical Co., Ltd., priority 2003, dated 2013).

Test system: rat
Assay: measurement of the cauda equina blood flow and the blood pressure in urethane-anesthetized rat
Assay type: in vivo
Details: continuous infusion through caudal vein for 30 minutes, dose not given; for the increase rate of the cauda equina blood flow: observed until 30 minutes after, laser-Doppler flowmetry; for decrease of the blood pressure: systemic blood pressure from left carotid artery
Description: The common procedure based on the fundamental biological means was used as all procedures. Furthermore, the measuring method of the present invention was modified to improve the accuracy and/or sensitivity of measurement for evaluating the compound of the present invention. The detailed experimental method was as follows. • (i) The measurement of the cauda equina blood flow and the blood pressure Experiment: 1.5g/kg of urethane was administered intraperitoneally to the rat to be anesthetized, and the catheter, which is for measurement of blood pressure and ventricular rate, was placed in left carotid artery in supine position. The rat was reversed to prone position and the lumbar part was incised in the median line. The laminectomy was given to the fifth lumbar vertebra and the spinal cord (cauda equina) was exposed. The cauda equina blood flow was measured by the laser-Doppler flowmetry (OMEGAFLD FLO-NI and ADVANCE LASER FLOWMETER ALF21N, OMEGA WAVE Inc.) through a noncontact probe (ST-N type, OMEGA WAVE Inc.) and recorded with LINEARCORDER (Graphtech). The systemic blood pressure and the ventricular rate were measured from a left carotid artery with amplifier for the pressure measurement (GOULD) through a pressure transducer and recorded with LINEARCORDER (Graphtech).
After confirming each parameter of blood pressure, ventricular rate and blood flow was stabilized, the test compound was administrated by continuous infusion through the winged needle placed in caudal vein for 30 minutes. It observed until 30 minutes after the administration and the increase rate of the cauda equina blood flow was calculated. The increase rate of the cauda equina blood flow (%)=(B−A)/A×100 • A: the cauda equina blood flow before the administration of the test compound • B: the cauda equina blood flow after the administration of the test compound

SMILES	the increase rate of the cauda equina blood flow	decrease of the blood pressure
O=C(O)c1csc(SCCN2C(=O)OC[C@@H]2/C=C/[C@@H](O)C2(CCCCF)CCC2)n1 [compound 8-1, 2-{[2-((4S)-4-{(1E,3R)-3-[1-(4-fluorobutyl)cyclobutyl]-3-hydroxy-1-propenyl}-2-oxo-1,3-oxazolidin-3-yl)ethyl]sulfanyl}-1,3-thiazole-4-carboxylic acid]	35%	6 mmHg
CC(O)(C/C=C/[C@H]1CCC(=O)[C@@H]1CCSc1nc(C(=O)O)cs1)CC1CCCCC1 (stereo partly drawn) [compound 53, 2-[(2-{(1R,2R)-2-[(1E)-5-cyclohexyl-4-hydroxy-4-methyl-1-pentenyl]-5-oxocyclopentyl}ethyl)sulfanyl]-1,3-thiazole-4-carboxylic acid]	31%	10 mmHg
